Measurements: PubChem BioAssay AID1259407 (Chemical Carcinogenesis Research Information System (CCRIS), 2018)
The source made the active and inactive calls. How the calls were made is not given here.

Test system: CCRIS mutagenicity, Ames/micronucleus/aberration tests
Experiment: CCRIS mutagenicity studies
Details: Test System: AMES SALMONELLA TYPHIMURIUM, Method: STANDARD PLATE

Measured: mutagenic call

CCC(CCCC(=O)O)COC(=O)c1ccccc1C(=O)O (configuration not stated)
inactive: Strain/Indicator: TA97, Metabolic Activation: NONE inactive; negative | Strain/Indicator: TA97, Metabolic Activation: RAT, LIVER, S-9, AROCLOR 1254 inactive; negative | Strain/Indicator: TA97, Metabolic Activation: RAT, LIVER, S-9, DI(2-ETHYLHEXYL)PHTHALATE inactive; negative | Strain/Indicator: TA98, Metabolic Activation: NONE inactive; negative | Strain/Indicator: TA98, Metabolic Activation: RAT, LIVER, S-9, AROCLOR 1254 inactive; negative | Strain/Indicator: TA98, Metabolic Activation: RAT, LIVER, S-9, DI(2-ETHYLHEXYL)PHTHALATE inactive; negative | Strain/Indicator: TA100, Metabolic Activation: NONE inactive; negative | Strain/Indicator: TA100, Metabolic Activation: RAT, LIVER, S-9, AROCLOR 1254 inactive; negative | Strain/Indicator: TA100, Metabolic Activation: RAT, LIVER, S-9, DI(2-ETHYLHEXYL)PHTHALATE inactive; negative | Strain/Indicator: TA102, Metabolic Activation: NONE inactive; negative | Strain/Indicator: TA102, Metabolic Activation: RAT, LIVER, S-9, AROCLOR 1254 inactive; negative | Strain/Indicator: TA102, Metabolic Activation: RAT, LIVER, S-9, DI(2-ETHYLHEXYL)PHTHALATE inactive; negative
